The record followed here is the supplement of paper PMC10949913.

Common to all, as to experiment: area under concentration-response curve (viability) (AUC (a.u.)); higher = less active
What all share (settings): 48 h

The test system of one assay is CU-ACC1. In short, it runs like this:
(§1)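 For each of three adrenocortical carcinoma cell lines, 500–1,000 cells/well were placed in 5 µL medium in 1,536-well plates. A 23 nL volume of every library compound was added at 11 concentrations. Following 48 h, a 15-minute room-temperature CellTiter-Glo step preceded luminescence reading, with signals normalised per plate to vehicle and empty-well controls. AC50 and area under the curve were derived by curve fitting, retaining only inhibitory or non-responding curve classes.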

The test system of the next assay is CU-ACC2. In short, it runs like this:
as §1

A further assay relates to NCI-H295R. In short, it runs like this:
as §1

Consider `CC(=O)[C@H]1CC[C@H]2[C@@H]3C/C=C4/C[C@@H](O)CC[C@]4(C)[C@H]3CC[C@]12C`, for which the “area under concentration-response curve” value with CU-ACC1 was 517; with CU-ACC2 it was 627; with NCI-H295R, 530.
For `Nc1nc(Cl)nc2c1ncn2[C@@H]1O[C@H](CO)[C@@H](O)[C@@H]1F` the same measures were 468, 559 and 537.
For `CN(CCO)C1CCN(c2ccc(Nc3ncc4c5ccnc(F)c5n(C5CCCC5)c4n3)nc2)CC1` the same measures were 467, 658 and 579.
The like results for `CN[C@@H]1Cc2cccc3[nH]c(=O)n(c23)C1` were, in that order, 576, 659 and 590.
As for `Nc1ncnc2c1c(COc1cccc(Cl)c1)nn2C1CCOCC1`, the figures for the “area under concentration-response curve” value in the assay on CU-ACC1, with CU-ACC2 and in the assay with NCI-H295R were 461, 578 and 525, respectively.
For `O=C(O)C(=O)c1cn(Cc2ccccc2)c2ccc(-c3ccc(OC(F)(F)F)cc3)cc12` the same measures were 474, 489 and 489.
On to `CCCC1=N[N](C)C2=C1\N=C(/NC2=O)C3=CC(=CC=C3OCC)[S+]([O-])(=O)N4CCN(C)CC4`, for which the figures for the “area under concentration-response curve” value in the assay on CU-ACC1, with CU-ACC2 and with NCI-H295R were 561, 610 and 539, respectively.
Consider `C#CCN(C)[C@H](C)Cc1ccccc1`, for which the figures for the “area under concentration-response curve” value with CU-ACC1, with CU-ACC2 and with NCI-H295R were 467, 457 and 434, respectively.
With `Cc1n[nH]c(C)c1Cc1sc2c(c1C(=O)N1C[C@H](O)CO1)c(=O)n(C)c(=O)n2CC(C)C`, the results for the “area under concentration-response curve” value in the assay on CU-ACC1, in the assay on CU-ACC2 and with NCI-H295R were 379, 597 and 554, respectively.
In the case of `O=C(Nc1nccs1)C(c1cc(F)ccc1O)N1Cc2ccccc2C1=O` (stereo not drawn), the “area under concentration-response curve” value in the assay on CU-ACC1 stood at 504; in the assay on CU-ACC2, 557; in the assay on NCI-H295R, 524.
As to `CCCC\1=C(/CNC(=O)C2=CC(=CC3=C2C=N[N]3C(C)C)C4=CC=C(N=C4)N5CCN(CC5)C(C)C)C(=O)NC(=C1)\C`, the “area under concentration-response curve” value with CU-ACC1 was determined as 379; with CU-ACC2, 485; in the assay on NCI-H295R, 472.
Turning to `CC1=C(C)C\2=C(S1)[N]3C(=NN=C3[C@H](CC(N)=O)\N=C2C4=CC=C(Cl)C=C4)C`, the figures for the “area under concentration-response curve” value with CU-ACC1, in the assay on CU-ACC2 and in the assay with NCI-H295R were 516, 538 and 452, respectively.
The like results for `COc1cc2ncn(-c3cc(OCc4ccccc4C(F)(F)F)c(C(N)=O)s3)c2cc1OC` were, in that order, 515, 606 and 506.
The like results for `CC(=O)N1CCN(c2ccc(NC(=O)Cc3cnc(-c4ccnc(F)c4)c(C)c3)nc2)CC1` were, in that order, 550, 643 and 582.
For `Cc1ccc(O)c(C(CCN(C(C)C)C(C)C)c2ccccc2)c1.Cl` (stereo not drawn) the same measures were 491, 625 and 558.
As to `C\C1=N\N(C(=O)C1)C2=CC=CC=C2`, the “area under concentration-response curve” value in the assay with CU-ACC1 turned out to be 492; in the assay with CU-ACC2, 585; in the assay with NCI-H295R, 478.
For the molecule `COCCOc1ccc(N2CCN(CCn3ncc4c3nc(N)n3nc(-c5ccco5)nc43)CC2)cc1`, the “area under concentration-response curve” value in the assay with CU-ACC1 was determined as 552; with CU-ACC2, 606; in the assay on NCI-H295R it was 530.
For `CCc1c(C(=O)C(N)=O)c2c(OCC(=O)O)cccc2n1Cc1ccccc1` the same measures were 572, 599 and 550.
The like results for `CC(NC1=CC=CC=C1)C\2=C\C(=C/N3C(=O)\C=C(/N=C23)N4CCOCC4)C` (stereo not drawn) were, in that order, 414, 647 and 583.
For `CN1C[C@@H]2c3ccccc3Oc3ccc(Cl)cc3[C@H]2C1`, the “area under concentration-response curve” value in the assay with CU-ACC1 is 553; with CU-ACC2, 525; with NCI-H295R, 554.
For `CN(CCOc1ccc(CC2SC(=O)NC2=O)cc1)c1ccccn1` (stereo not drawn) the same measures were 515, 644 and 576.
The like results for `CN(N=O)C(=O)N[C@@H]1[C@@H](O)[C@H](O)[C@@H](CO)O[C@@H]1O` were, in that order, 502, 590 and 548.
For `O[C@@H]1C\C(=C/C(O)C1O)C(O)=O` (stereo partly drawn) the same measures were 512, 614 and 581.
`CCOc1cc(N)c(Cl)cc1C(=O)NCC1CN(Cc2ccc(F)cc2)CCO1` (stereo not drawn): the “area under concentration-response curve” value in the assay with CU-ACC1 worked out at 554; in the assay with CU-ACC2 it was 538; with NCI-H295R, 542.
As to `CC(C)(N[S+](=O)([O-])c1ccc2c(Cl)cnc(NC(=N)N)c2c1)C(=O)O`, the “area under concentration-response curve” value with CU-ACC1 turned out to be 527; with CU-ACC2 it was 609; with NCI-H295R, 570.
For `CC(C)(CO)n1cc(C(=O)c2cncc(NC(=O)Cc3ccc(Cl)cn3)c2)c2cnc(N)nc21` the same measures were 532, 576 and 496.
For `CNC(=O)[C@@H](NC(=O)[C@H](CC(C)C)[C@H](O)C(=O)NO)C(C)(C)C` the same measures were 513, 615 and 563.
For `Cc1c(F)cc(C(=O)NC2CC2)cc1-c1ccc(C(=O)NCC(C)(C)C)cn1` the same measures were 389, 427 and 394.
Regarding `O=C1\C=C(OC2=C(C=CC=C12)C3=CC=CC4=C3SC5=C4C=CC=C5)\N6CCOCC6`, the “area under concentration-response curve” value in the assay on CU-ACC1 was determined as 374; with CU-ACC2, 557; with NCI-H295R, 497.
As to `CC(C)NC(=O)N1CC[C@@H](C1)NC/2=N/C3=C(C=CC(=C3)F)N(CC(F)F)C4=C2C=C(Cl)C=C4`, the “area under concentration-response curve” value in the assay on CU-ACC1 was 580; in the assay with CU-ACC2, 656; in the assay with NCI-H295R it was 580.
As for `CC1=CC2=C(O1)C(=C3OC(=O)\C=C(C)/C3=C2)C`, the “area under concentration-response curve” value in the assay with CU-ACC1 was 482; in the assay with CU-ACC2, 581; in the assay on NCI-H295R, 516.
For `Cc1cc(-c2cnn3c(NC[C@H]4C[C@@](C)(O)C4)cc(Oc4cccnc4)nc23)ccc1C(=O)NC1CC1` the same measures were 626, 775 and 659.
The like results for `C[C@]\12CC[C@H](O)CC1=C/C[C@@H]3[C@@H]2CC[C@@]\4(C)[C@H]3C\C=C4C5=CN=CC=C5` were, in that order, 522, 588 and 509.
The like results for `OC1=C(C=CC=C1)C2=CC=C(C=C2)C3=CSC4=C3C(=C(/C#N)C(=O)N4)/O` were, in that order, 535, 626 and 570.
As to `CC[C@H](NC(C)C)[C@H](O)C1=CC=C(O)C2=C1\C=C/C(=O)N2`, the “area under concentration-response curve” value with CU-ACC1 stood at 566; in the assay with CU-ACC2, 650; in the assay on NCI-H295R it was 564.
For `Fc1ccc(Cl)cc1-c1nc(Nc2ccncc2)c2nccnc2n1` the same measures were 553, 612 and 549.
For `NCCCC(O)(P(=O)([O-])O)P(=O)(O)O` the same measures were 511, 529 and 472.
For `CCCCCCCCCCCCCCCCCCCCCCO` the same measures were 538, 562 and 525.
Take `CC1(C)Cc2c(sc(NC(=S)NC(=O)c3ccccc3)c2C(=O)O)CO1`: the entries for the “area under concentration-response curve” value in the assay on CU-ACC1, in the assay on CU-ACC2 and in the assay with NCI-H295R were 490, 586 and 522, respectively.
The like results for `COc1cc2c(NC3CCN(C)CC3)nc(N3CCCN(C)CC3)nc2cc1OCCCN(C)C` were, in that order, 544, 641 and 564.
For `CC(C)NCC(O)COc1ccc(CCOCC2CC2)cc1` (stereo not drawn) the same measures were 493, 560 and 536.
